From patent US6458837B1, “Lipophilic diesters of chelating agents” (D-Pharm Ltd., priority 1997, dated 2002)
Marks after values point to notes of the source that are not given here.

How the values were obtained:
[1] = Water/octanol distribution of Ca++ ions; format: physicochemical; conditions: 15 ml octanol / 15 ml saline pH 6.5; CaCl2 2×10^−3 M/L
Procedure: (§1) The hydrophilic/hydrophobic system used in this set of experiments consisted of 15 ml octanol and 15 ml saline pH=6.5. DP-BAPTA 99 was dissolved in the octanol solution before this phase was mixed with the saline. The DP-BAPTA concentration in the different experiments varied from 2.1×10^−6 to 5.5×10^−4 M/L in the experiments with Ca^2+ and from 5.4×10^−6 to 1.4×10^−3 M/L in the experiments with either Zn^2+ or Fe^2+, as indicated for each point in FIGS. 1A-C. The corresponding metal ions were added in the aqueous solution as chlorides at the following concentrations: FeCl2 2×10^−3 M/L, ZnCl2 10^−4 M/L, CaCl2 2×10^−3 M/L.
(§2) The octanol and buffer phases were mixed and vortexed for 1 hr at room temperature, followed by centrifugation at 4000 rpm, 10 min in order to separate the mixture to the two phases.
(§3) Different analytical procedures were employed for water and octanol samples: i) Water samples were analyzed versus ICP standards from Merk. Ca and Zn were determined in tested solutions by inductively coupled plasma atomic emission spectrometry. An ICP-AES, model “Spectroflame Modula E” from Spectro, Kleve, Germany was used, with a standard cross flow nebulizer and fixed EOP torch. The power level was 1.2 kW, coolant flow—15 l/min, auxilliary flow 0.5 l/min and nebulizer flow—0.5 l/min. ii) Octanol samples, 2-ml each, in a glass tube, were transferred to a heating block. […]

[2] = test system: cultured neuronal cells of rat hippocampus; experiment: Intracellular Ca++ concentration, Fluo-3/AM fluorescence; format: cell-based; conditions: 1 mM in 9 sec. pulse applied onto cultured hippocampal neurons
[3] = Octanol-saline partition coefficient (lipophilicity); format: physicochemical; conditions: for LogPc, octanol-saline partition coefficient, M = Ca++: calcium salt (BAPTA: dicalcium salt); for LogPc, octanol-saline partition coefficient, M = Ca++ / LogPc, octanol-saline partition coefficient, M = Na+: octanol/physiological saline, 26° C.; for LogPc, octanol-saline partition coefficient, M = Na+: sodium salt (BAPTA: tetrasodium salt)
Procedure: The lipophilicity values of several BAPTA diesters salts of the invention were studied by comparing the solubility of these compounds in organic versus aqueous solutions. Octanol and physiological saline were used, respectively, as the organic and aqueous solutions. The partition coefficient (Pc), i.e the distribution ratio between the organic and the aqueous phases were determined for several specific BAPTA diesters salts of the general formula I: [drawing 6]

Wistar rats = experiment: Pilocarpine-induced epilepsy; conditions: i.p. one hour before pilocarpine 400 mg/kg
Mongolian gerbils [4] = conditions: 5 μg/kg i.p. single dose immediately after 10 minutes ischemia; three days after ischemia
Mongolian gerbils [5] = conditions: for neuroprotective activity, sodium salt compared with calcium salt: global forebrain ischemia model; for neuronal damage (serum NSE activity 24 hours after ischemia): single dose 5μg/kg i.p. at onset of reperfusion (t=0) or 3 hours after (t=3), 10 min ischemia
Procedure: (§4) Animal. Male Mongolian gerbils 60-70 g (Charles River Laboratories, USA) were used for the study.
(§5) Induction of ischemia. Anesthesia was induced in gerbils with halothane (4%) in an anesthesia chamber (30% oxygen, 70% nitrous oxide) and was maintained with 1% halohtane in 30% oxygen and 70% nitrous oxide using face masks. For ischemia induction, both common carotid arteries were isolated via a neck midline incision and temporarily occluded for 10 or 20 min, as indicated, using arterial clips. During the entire period of cerebral ischemia, when the clips were in place, anesthesia was maintained only with 30% oxygen and 70% nitrous oxide, without halothane. Rectal temperature, monitored with a rectal probe, was maintained throughout ischemia at 37-37.5° C. by using a warming lamp and heating pad. Whenever applied, the tested BAPTA diesters were administered to the animals either parenterally via i.p. or orally, at the times and dosages as indicated in each particular experiment. Control animals were treated with the vehicle alone, i.e with 0.9% NaCl solution instead of the PABTA diester compound.
Statistics. Statistical analysis was carried out using the Student's t-test with Bonferroni corrections and p<0.05 as the level of significance.
Neuronal-specific enolase (NSE) assay. Blood samples were taken from the orbital sinus of gerbils 24 and 72 hours after 10 min period of cerebral ischemia. Blood samples were centrifuged for 5 min at 3000 rpm to obtain serum (the supernatant fraction). NSE activity in the serum was determined by radioimmunoassay using NSE kit (Pharmatope Ltd.,Israel).
The enzymatic activity of neuronal-specific enolase (NSE ) in the serum was used for evaluating the efficacy of the tested BAPTA-diesters in preventing neuronal damage. […] Thus, NSE may serve as a quantitative marker for the degree of neuronal damage.

Mongolian gerbils [6] = experiment: Global forebrain ischemia, animal survival; format: in vivo; conditions: 10 μg/kg i.p. single dose at onset of reperfusion; 20 min ischemia
Procedure: as §4, §5

[7] = Water/octanol distribution of Fe++ ions; format: physicochemical; conditions: 15 ml octanol / 15 ml saline pH 6.5; FeCl2 2×10^−3 M/L
Procedure: as §1, §2, §3

[8] = Water/octanol distribution of Zn++ ions; format: physicochemical; conditions: 15 ml octanol / 15 ml saline pH 6.5; ZnCl2 10^−4 M/L
Procedure: as §1, §2, §3

[9] = test system: cultured hippocampal neurons; conditions: 0.1, 1.0 or 10.0 μg/ml perfused 5 minutes; 40 millisecond K+ pulses
Na/K-ATPase = Na/K-ATPase activity in mouse brain cortex homogenate; format: biochemical; conditions: 10^−7 to 10^2 μg/ml; mouse cerebral cortex homogenate
Procedure: Thus, the effects of BAPTA-diesters on Na/K-ATPase activity were examined in mouse brain homogenates treated with different concentrations of diethyl-BAPTA (DP-BAPTA 27, disodium salt). The BAPTA-diester tested concentrations ranged from 10^−7 to 10^2 μg/ml.
Preparation of mouse brain homoganate. Male CD-1 mice (10 to 21 days of age) were sacrificed by rapid decapitation. The skull was opened, the brains removed and cut into two. The cortex was isolated, put into sodium Ringer's buffer, washed three times with ice cold PBS and kept on ice. The brain tissue was homogenized using a Polytron at 14000 rpm for 4×30 seconds, on ice. The homogenization buffer contained: 250 mM Sucrose; 1 mM EGTA; 20 mM HEPES-Tris, pH 7.4, and the protease inhibitor PMSF.
The homogenate was span down in a Sorval refrigerated centrifuge at 27000 g for 30 minutes. The membrane fraction was collected and re-suspended in the homogenization buffer. […]
Na/K-ATPase assay. Na/K ATPase was measured as described before (Norby J, G. Coupled (1988) Assay of the Na^+—K^+ ATPase Activity. Methods in Enzymology. 156: 116-119) in the absence and presence of the Na/K-ATPase inhibitor, ouabain (3 mM). The Protein content was determined using the Bio Rad-Bradford assay as previously described (Bradford, M. (1978) Protein assay. Ann. Biochem. 72: 248-257.).

Structure (SMILES) | drug concentration at which transfer of Ca++ ions from water to octanol is evident [1] | effect on intracellular calcium levels (Fluo-3 fluorescence) [2] | LogPc, octanol-saline partition coefficient, M = Ca++ [3] | LogPc, octanol-saline partition coefficient, M = Na+ [3] | effect on generalized seizures (Wistar rats) | effect on limbic seizures (Wistar rats) | effect on mortality during the 3 hour period of status epilepticus (Wistar rats) | prevention of status epilepticus (Wistar rats) | ischemia-induced neuronal damage in CA-2, CA-3 and dentate gyrus regions of the hippocampus (Mongolian gerbils [4]) | neuroprotective activity, sodium salt compared with calcium salt (Mongolian gerbils [5]) | serum NSE activity 24 h and 72 h after global cerebral ischemia (Mongolian gerbils [5]; oral, 0.5 mg/kg 4 hours before and at onset of reperfusion, or 0.5 mg/kg daily for 3 days after ischemia) | neuronal damage (serum NSE activity 24 hours after ischemia) (Mongolian gerbils [5]) | extension of survival time (Mongolian gerbils [6]) [fold] | drug concentration at which transfer of Fe++ ions from water to octanol is evident [7] [µM] | drug concentration at which transfer of Zn++ ions from water to octanol is evident [8] [µM] | effect on potassium-induced increase in intracellular calcium ion concentration [9] | lipophilicity relative to the sodium salt of the parent molecule BAPTA ([3]; octanol versus aqueous phase) | effect on Na/K-ATPase activity (Na/K-ATPase)
O=C(O)CN(CC(=O)O)c1ccccc1OCCOc1ccccc1N(CC(=O)O)CC(=O)O [BAPTA, 1,2-bis(2 aminophenoxy)ethane-N,N,N′,N′-tetraacetic acid, reference compound] | does not | only insignificant increase in intracellular Ca^2+ | −1.71^d) | −3.3^c) | – | – | – | – | – | – | – | – | – | – | – | – | – | –
CCCCCCCCOCCOC(=O)CN(CC(=O)O)c1ccccc1OCCOc1ccccc1N(CC(=O)O)CC(=O)OCCOCCCCCCCC [DP-BAPTA-99, BAPTA diester of octylethylene glycol] | 250 to 500 µM | – | 1.10 | 0.80 | capable of preventing generalized seizures | no effect | reduces mortality | about half of the population | significant neuroprotective effect | much pronounced neuroprotective activity comparing to the calcium salt | significant reduction in NSE activity | prevented neuronal damage | 3 | 250 to 500 | 10 | attenuates potassium-induced increase in intracellular calcium ion concentration | 10,000 fold | –
CCCCCCCCOC(=O)CN(CC(=O)O)c1ccccc1OCCOc1ccccc1N(CC(=O)O)CC(=O)OCCCCCCCC [DP-BAPTA-60, Octyl diester of BAPTA] | – | – | 0.79 | 0.85 | – | – | – | – | effective in decreasing the ischemia-induced neuronal damage in the same regions, albeit to a lesser extent than DP-BAPTA 99 | equally effective | – | prevented neuronal damage | 2 | – | – | – | – | –
CCOC(=O)CN(CC(=O)O)c1ccccc1OCCOc1ccccc1N(CC(=O)O)CC(=O)OCC [DP-BAPTA 27, diethyl-BAPTA] | – | – | – | – | – | – | – | – | – | – | – | – | – | – | – | – | – | dose dependent increase in Na/K-ATPase activity
